In patent publication US20070191449A1, “Use of Benzo-Heteroaryl Sulfamide Derivatives for the Treatment of Depression” (priority 2006, published 2007):

What was measured:
[1] = test system: Male NMRI mice; assay: Mouse Tail Suspension In Vivo Assay; settings: for Immobilization Time (sec); (mean ± SEM): single dose 30 min prior to tail suspension
Procedure: The tail suspension test (TST) is an acute test of anti-depressant activity.
Male NMRI mice (25-30 g; n=13-15 mice per dose) were given a single dose of vehicle (aqueous solution of 1 equivalent tartaric acid+0.45% NaCl+10% cyclodextrin, i.p.), imipramine (20 mg/kg, i.p. in an aqueous solution of 0.9% NaCl) or Compound #1 (at 5, 10, 20, 40 or 80 mg/kg, i.p.) 30 min prior to tail suspension. In this test, the mice were submitted to an unpleasant and inescapable situation (hanging by the tail) for 6 min. Once suspended, motor activity diminished rapidly and the mice became immobile. A compound was considered active as an antidepressant in this model, when there was a reduction in immobility time. Viewpoint video-tracking software was utilized to record immobility time.
Therefore, a compound which is not active in this model may nonetheless be active as an antidepressant.

[2] = test system: Male C57BL/6 mice; assay: Mouse Forced Swim Test; type: in vivo; settings: not statistically significant (p=0.19)
Procedure: The forced swim test (FST) is an acute test of anti-depressant activity. Note that in this test, antidepressant-like compounds such as tricyclics, MAO inhibitors, SSRIs and others show activity, although the level of measured activity can vary with strain differences.
Male C57BL/6 mice (˜25 g; n=10 mice per dose) were given a single dose of vehicle (an aqueous solution of 1 equivalent tartaric acid+0.45% NaCl+10% cyclodextrin, s.c.), Compound #1 (at 5, 10, 20, 40 or 80 mg/kg, s.c.) or imipramine (10 mg/kg, i.p. in an aqueous solution of 0.9% NaCl) 30 min prior to entrance into the swim chamber. In this test, mice were placed in a water-filled cylinder in which they were unable to escape or touch the bottom of the chamber for 6 min. Once immersed in water, motor activity diminished rapidly and the mice became immobile. Viewpoint video-tracking software was utilized to record immobility time. Other common behaviors such as swimming and climbing activity were not measured in this study.

[3] = Drug concentration in terminal plasma and brain of RSBM rats (LC-MS-MS); type: in vivo, Male Sprague Dawley rats; settings: submissive rats treated with increasing doses (6, 30, 60 mg/kg p.o. BID)
Text: Rats were housed four per cage. Access to food was restricted to one hour per day after testing on Monday through Thursday. After testing on Friday, rats had free access to food until being fasted again on Sunday. At no time were the rats deprived of water. The food deprivation periods used had little effect on weight gain as the average weight of rats was about 300 g at the end of the study. At the conclusion of experiment rats were sacrificed by decapitation, the trunk blood and brains were collected for in vitro experiments and drug concentration measurements.
Terminal blood samples (0.5-1.0 mL) were collected post experiment into heparinized tubes. Blood samples were centrifuged for cell removal, and 200 μL of plasma supernatant was then transferred to a clean vial, placed on dry ice, and subsequently stored in a −80° C. freezer prior to analysis. Two hundred microliters of acetonitrile containing internal standard was added to 100 μL of plasma or brain tissue to precipitate proteins and/or tissue residues. Samples were centrifuged and supernatant removed for analysis by liquid chromatography-triple quadruple mass spectrometry (LC-MS-MS). […] Calibration standards were prepared in the range of 0.01 to 10 μM for quantitation. […]

[4] = test system: submissive rats; assay: Dominant-Submissive Competition: Reduction of Submissive Behavior Model (RSBM); type: in vivo, Male Sprague Dawley rats
Procedure: Dominance and submissiveness, defined in a competition test and measured as the relative success of two food-restricted rats to gain access to a feeder, form a behavioral paradigm—the Dominant Submissive Relationship (DSR). This paradigm results in two models which are predictive of ability of test compounds (drugs) to treat mood disorders.
Test compounds are evaluated for either their ability to inhibit the dominant behavior of rats taking food at the expense of an opponent (reduction of dominant behavior model or RDBM) and thus their potential as treatments for mania; or for their ability to increase the competitive behavior of submissive rats losing such encounters (reduction of submissive behavior model or RSBM) and thus their potential as treatments for depression; (Malatynska, E., and Knapp, R. J., Neuroscience and Biobehavioral Review, 29 (2005) 715-737). […]
The basic testing apparatus consisted of two chambers connected with a tunnel only large enough to allow one rat to pass through at a time. […] During the five-minute daily sessions, time spent in the feeder zone by each rat was recorded by the video tracking software and saved into a text file.
The test began with a random assignment of rats into pairs. […] The time spent in the feeder zone by each animal was recorded. […]

| SMILES | decrease in immobility time ([1]; 20 mg/kg i.p. versus vehicle (71 sec), p=0.0004) [%] | Immobilization Time (sec); (mean ± SEM) ([1]; 20 mpk i.p.) [s] | Immobilization Time (sec); (mean ± SEM) ([1]; 20 mpk i.p., listed as imipramine) [s] | decrease in immobility time ([2]; 10 mg/kg i.p. versus vehicle (152 sec)) [%] | immobility time ([2]; 10 mg/kg i.p., vehicle=152 sec) [s] | Immobilization Time (sec); (mean ± SEM) ([1]; 5 mpk i.p.) [s] | Immobilization Time (sec); (mean ± SEM) ([1]; 10 mpk i.p.) [s] | Immobilization Time (sec); (mean ± SEM) ([1]; 40 mpk i.p.) [s] | Immobilization Time (sec); (mean ± SEM) ([1]; 80 mpk i.p., increase resembled sedation (p=0.003)) [s] | Immobilization Time (sec); (mean ± SEM) ([1]; 80 mpk i.p., increase resembled sedation (p=0.003), listed as #1) [s] | exposure in plasma and brain [3] | statistical significance of the reduction of submissive behavior ([4]; after 17 days of treatment with 60 mg/kg, p<0.01) | reduction of submissive behavior ([4]; submissive rats treated p.o. BID at 6, 30 or 60 mg/kg) |
| --- | --- | --- | --- | --- | --- | --- | --- | --- | --- | --- | --- | --- | --- |
| CN(C)CCCN1c2ccccc2CCc2ccccc21 [Imipramine, reference compound] | 75 | 18.0 ± 5.8 | 18 | 20 | 122 | – | – | – | – | – | – | – | – |
| NS(=O)(=O)NCc1csc2ccccc12 [Compound #1, N-(benzorblthien-3-vimethyl)-sulfamide] | – | 110.1 ± 15.8 | – | – | – | 66.1 ± 10.1 | 96.4 ± 12.4 | 100.5 ± 13.9 | 160 | 160.4 ± 10.7 | linear increase in exposure both in plasma and brain | statistically significant | reduced submissive behavior in a dose-dependent manner |
